Data set [1] addresses T1, human progesterone receptor (PR) (Homo sapiens, UniProt P06401).
T1 construct: expressed in transfected cells; host or cells: HEK293, transient transfection, CMV promoter plasmid
T1 sequence (P06401 1-933): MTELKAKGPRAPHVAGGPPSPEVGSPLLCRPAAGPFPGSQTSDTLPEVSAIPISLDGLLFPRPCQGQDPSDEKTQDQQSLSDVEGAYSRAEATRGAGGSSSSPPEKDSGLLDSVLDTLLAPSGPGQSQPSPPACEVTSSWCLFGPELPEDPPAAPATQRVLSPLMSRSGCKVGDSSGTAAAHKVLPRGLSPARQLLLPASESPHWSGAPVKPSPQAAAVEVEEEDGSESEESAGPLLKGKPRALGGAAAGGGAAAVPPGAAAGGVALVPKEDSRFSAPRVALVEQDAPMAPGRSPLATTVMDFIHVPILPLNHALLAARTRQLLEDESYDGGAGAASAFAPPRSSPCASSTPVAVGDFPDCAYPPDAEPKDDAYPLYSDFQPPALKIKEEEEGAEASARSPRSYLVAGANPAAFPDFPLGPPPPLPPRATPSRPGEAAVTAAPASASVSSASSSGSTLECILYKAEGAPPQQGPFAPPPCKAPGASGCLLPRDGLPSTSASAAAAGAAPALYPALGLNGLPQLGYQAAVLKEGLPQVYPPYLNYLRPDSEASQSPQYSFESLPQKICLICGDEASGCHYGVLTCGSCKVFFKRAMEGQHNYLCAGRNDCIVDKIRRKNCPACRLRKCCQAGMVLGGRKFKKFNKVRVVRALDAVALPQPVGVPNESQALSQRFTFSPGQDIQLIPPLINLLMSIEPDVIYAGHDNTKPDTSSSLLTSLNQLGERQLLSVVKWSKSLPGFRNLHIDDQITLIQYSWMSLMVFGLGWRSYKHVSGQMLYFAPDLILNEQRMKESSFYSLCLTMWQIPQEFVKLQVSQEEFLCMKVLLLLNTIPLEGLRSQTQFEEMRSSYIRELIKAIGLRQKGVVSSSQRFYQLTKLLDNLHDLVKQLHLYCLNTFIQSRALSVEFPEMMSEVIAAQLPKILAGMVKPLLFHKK
The data set can be described thus: Nuclear hormone receptor functional modulation assay (GRE-luciferase reporter, HEK293), PR. The format is cell-based. Particulars: agonist mode, mean of n=4 or 5. The text has this: The solvents, reagents, and ligands employed in the functional assay are readily available from commercial sources, or can be prepared by one of ordinary skill in the art.
Human embryonic kidney HEK293 cells are transfected with steroid hormone receptor and reporter gene plasmids using Fugene™ transfection reagent. Briefly, the reporter plasmid containing two copies of probasin ARE and TK(thymidine kinase) promoter upstream of the luciferase reporter cDNA, is transfected into HEK293 cells with a plasmid constitutively expressing human androgen receptor (AR) using viral CMV(cytomegalovirus) promoter. The reporter plasmid containing two copies of GRE and TK promoter upstream of the luciferase reporter cDNA is transfected with a plasmid constitutively expressing either human glucocorticoid receptor (GR), human mineralocorticoid receptor (MR), or human progesterone receptor (PR) using viral CMV promoter. […] After 24-hours incubation with test compounds, cells are lysed and luciferase activity is determined using standard techniques.
Data are fitted to a four parameter-fit logistic curve fit to determine EC50 values. […] IC50 values may be determined similarly using antagonist mode assay data. Percent inhibitions may also be determined relative to the response in the presence of agonist alone, as described above.

In data set [2] the test system is serum osteocalcin in male Swiss-Webster mice. The data set can be described thus: Serum osteocalcin assay. The format is in vivo, mouse. Particulars: oral, seven days, 3 mg/Kg/day Compound (I) vs 10 mg/Kg/day prednisolone, serum 24 h after last dose. The text has this:
Bone loss/osteoporosis and the resulting increased risk of fracture is a common and significant adverse effect that results from glucocorticoid therapy. Glucocorticoid induced osteoporosis is believed to result, at least in part, from an inhibition of bone formation. The measurement of serum osteocalcin, a biological marker of bone synthesis, is a recognized tool for assessing the adverse effects of glucocorticoid therapy on bone.
To assess the effects of Compound (I) on bone formation, Compound (I) is formulated in a vehicle comprising 5% carboxymethyl cellulose and 0.25% Tween 80 and administered orally via gavage to sixteen week old male Swiss-Webster mice (Harlan Industries, Indianapolis) for seven days. For comparison, prednisolone is administered orally in the same vehicle. Serum is collected 24 hours after the last dose and osteocalcin levels are determined using a competitive radioimmunoassay modified to a 96 well format. […] The filters are punched and the radioactivity quantitated on a gamma counter. Radioactivity detected on the filters from test samples is inversely proportional to serum osteocalcin concentration. […]

Here are results for one compound from patent US8101761B2, “(E)-N-{3-[1-(8-fluoro-11H-10-OXA-1-AZA-dibenzo [A,D] cyclohepten-5ylidene)-propyl]-phenyl}-methanesulfonamide as glucocorticoid receptor modulator for the treatment of rheumatoid arthritis” (Eli Lilly and Company, priority 2008, dated 2012).

For orientation: EC50 means the concentration giving half of the maximal effect.

As for `CC/C(=C1\c2ccc(F)cc2OCc2ncccc21)c1cccc(NS(C)(=O)=O)c1` [Compound (I), (E)-N-{3-[1-(8-Fluoro-11H-10-oxa-1-aza-dibenzo[a,d]cyclohepten-5-ylidene)-propyl]-phenyl}-methanesulfonamide], in data set [1] (relative to 30 nM promegestone), the “efficacy in activating transcription, PR” value is given as “about 54%”. Moreover, in data set [1] (read-out: EC50 in activating transcription, PR), the concentration giving a half-maximal response (EC50) is greater than 10 µM. In data set [2], the “reduction in serum osteocalcin levels” value is on record as “less reduction in serum osteocalcin levels than prednisolone”.
